Experimental data: patent US7678918B2, “Intermediates for imidazonaphthyridines” (3M Innovative Properties Company, priority 1997, dated 2010)

Assays:
TNF = assay: Cytokine Induction in Human Cells: tumor necrosis factor (TNF) secreted by PBMCs, ELISA; type: cell-based; conditions: 18 to 24 hours; also: call rule not given here
Procedure, shortened: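 Human donor PBMCs at 1.5-2×10^6 cells/mL in RPMI with 10% FBS were exposed to compound, generally at 0.1 to 100 μM (≤1% DMSO final), for 18 to 24 h at 37 °C. Secreted TNF in supernatant was measured by ELISA and reported as pg/mL.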

IFN = assay: Cytokine Induction in Human Cells: interferon (IFN) secreted by PBMCs, A549/encephalomyocarditis bioassay; type: cell-based; conditions: 18 to 24 hours; also: call rule not given here
Procedure, shortened: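 Human PBMCs from healthy donors at 1.5-2×10^6 cells/mL in RPMI with 10% FBS, exposed to compounds (typically 0.1 to 100 μM, ≤1% DMSO) for 18 to 24 h at 37° C. Secreted IFN measured by A549/encephalomyocarditis virus cytopathic-effect bioassay, in alpha reference units/mL against NIH human leukocyte IFN standard.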

interferon α = assay: Interferon (α) Induction in Human Cells (PBM's, 48 hours, A549 bioassay); type: cell-based; design: key: +: indicates that the compound induced interferon α at that particular concentration; −: indicates that the compound did not induce interferon α at that particular concentration; ±: indicates that the results were equivocal at that particular concentration; conditions: 48 hours incubation
Experimental: An in vitro human blood cell system was used to assess interferon induction by compounds of the invention. Activity is based on the measurement of interferon secreted into culture media. Interferon is measured by bioassay.
Whole blood was collected by venipuncture into EDTA vacutainer tubes. Peripheral blood mononuclear cells (PBM's) were separated from whole blood by using either LeucoPREP™ Brand Cell Separation Tubes (available from Becton Dickinson) or Ficoll-Paque® solution (available from Pharmacia LKB Biotechnology Inc, Piscataway, N.J.). The PBM's were suspended at 1×10^6/mL in RPMI 1640 media (available from GIBCO, Grand Island, N.Y.) containing 25 mM HEPES (N-2-hydroxyethylpiperazine-N′-2-ethanesulfonic acid) and L-glutamine (1% penicillin-streptomycin solution added) with 10% heat inactivated (56° C. for 30 minutes) autologous serum added. 200 μL portions of PBM suspension were added to 96 well (flat bottom) MicroTest III sterile tissue culture plates.
The compounds were solubilized in ethanol, dimethyl sulfoxide or tissue culture water then diluted with tissue culture water, 0.01N sodium hydroxide or 0.01N hydrochloric acid (The choice of solvent will depend on the chemical characteristics of the compound being tested.). Ethanol or DMSO concentration should not exceed a final concentration of 1% for addition to the culture wells. Compounds were initially tested in a concentration range of from about 0.1 μg/mL to about 5 μg/mL. Compounds which show induction at a concentration of 0.5 μg/mL were then tested in a wider concentration range.
The solution of test compound was added in a volume (less than or equal to 50 μL) to the wells containing 200 μL of diluted whole blood or of PBM's in media. Solvent and/or media was added to control wells (wells with no test compound) and as needed to adjust the final volume of each well to 250 μL. The plates were covered with plastic lids, vortexed gently and then incubated for 48 hours at 37° C. with a 5% carbon dioxide atmosphere.
Following incubation, the plates were covered with parafilm and then centrifuged at 1000 rpm for 10 to 15 minutes at 4° C. in a Damon IEC Model CRU-5000 centrifuge. Media (about 200 μL) was removed from 4 to 8 wells and pooled into 2 mL sterile freezing vials. Samples were maintained at −70° C. until analysis.
Interferon was determined by bioassay using A549 human lung carcinoma cells challenged with encephalomyocarditis. The details of the bioassay method have been described by G. L. Brennan and L. H. Kronenberg in “Automated Bioassay of Interferons in Micro-test Plates”, Biotechniques, June/July 78, 1983, incorporated herein by reference. Briefly stated the method is as follows: interferon dilutions and A549 cells are incubated at 37° C. for 12 to 24 hours. The incubated cells are infected with an inoculum of encephalomyocarditis virus. The infected cells are incubated for an additional period at 37° C. before quantifying for viral cytopathic effect. The viral cytopathic effect is quantified by staining followed by spectrophotometric absorbance measurements. Results are expressed as alpha reference units/mL based on the value obtained for NIH HU IF-L standard. The interferon was identified as essentially all interferon alpha by testing in checkerboard neutralization assays against rabbit anti-human interferon (beta) and goat anti-human interferon (alpha) using A549 cell monolayers challenged with encephalomyocarditis virus.

melting point | SMILES | TNF induction (TNF; Dose Concentration 1.0 μM) | TNF induction (TNF; Dose Concentration 10.0 μM) | TNF induction (TNF; Dose Concentration 100.0 μM) | IFN induction (IFN; Dose Concentration 1.0 μM) | IFN induction (IFN; Dose Concentration 10.0 μM) | IFN induction (IFN; Dose Concentration 100.0 μM) | Interferon (α) Induction in Human Cells (interferon α; Dose Concentration 0.01 μg/mL) | Interferon (α) Induction in Human Cells (interferon α; Dose Concentration 0.05 μg/mL) | Interferon (α) Induction in Human Cells (interferon α; Dose Concentration 0.10 μg/mL) | Interferon (α) Induction in Human Cells (interferon α; Dose Concentration 0.50 μg/mL) | Interferon (α) Induction in Human Cells (interferon α; Dose Concentration 1.0 μg/mL) | Interferon (α) Induction in Human Cells (interferon α; Dose Concentration 5.0 μg/mL) | Interferon (α) Induction in Human Cells (interferon α; Dose Concentration 10.0 μg/mL) | Interferon (α) Induction in Human Cells (interferon α; Dose Concentration 25.0 μg/mL) | Interferon (α) Induction in Human Cells (interferon α; Dose Concentration 50.0 μg/mL) | TNF induction (TNF; Dose Concentration 0.1 μM) | IFN induction (IFN; Dose Concentration 0.1 μM)
322 to 324 °C | Cc1nc2c(N)nc3cnccc3c2n1CC(C)C [Example 25, 2-Methyl-1-(2-methylpropyl)-1H-imidazo[4,5-c][1,7]naphthyridin-4-amine] | − | ± | − | − | + | + | − | − | − | − | − | + | + | + |  |  | 
230 to 231.5 °C | CC(C)Cn1cnc2c(N)nc3cccnc3c21 [Example 32, 1-(2-Methylpropyl)-1H-imidazo[4,5-c][1,5]naphthyridin-4-amine] | − | − | − | + | + | + | − | − | − | − | + | + | + | + | + |  | 
226 to 230 °C | Cc1nc2c(N)nc3c(c2n1CC(C)C)CCNC3 [Example 26, 6,7,8,9-Tetrahydro-2-methyl-1-(2-methylpropyl)-1H-imidazo[4,5-c][1,7]naphthyridin-4-amine] | + | ± | − | + | − | + | − | − | − | − | − | ± | + | + |  |  | 
306 to 307 °C | CC(C)Cn1cnc2c(N)nc3cnccc3c21 [Example 22, 1-(2-Methylpropyl)-1H-imidazo[4,5-c][1,7]naphthyridin-4-amine] | − | ± | + | − | − | − |  |  |  |  | − | − | − | + |  |  | 
231 to 233 °C | CC(C)Cn1cnc2c(N)nc3c(c21)CCCN3 [Example 10, 6,7,8,9-Tetrahydro-1-(2-methylpropyl)-1H-imidazo[4,5-c][1,8]naphthyridin-4-amine] | − | − | + | + | + | + | − | − | − | − | + | + | + | + | + | − | +
148.5 to 149.5 °C | CCCCc1nc2c(N)nc3cccnc3c2n1CCCCNC(=O)OC(C)(C)C [Example 45, 1,1-Dimethylethyl N-[4-(4-Amino-2-butyl-1H-imidazo[4,5-c][1,5]naphthyridin-1-yl)butyl]carbamate] | + | + | − | + | + | − |  |  |  |  |  |  |  |  |  | − | +
241 to 242 °C | CCCCc1nc2c(N)nc3cccnc3c2n1CCNC(=O)Cn1cc(C)c(=O)[nH]c1=O [Example 114, N^1-[4-(4-Amino-2-butyl-1H-imidazo[4,5-c][1,5]naphthyridin-1-yl)ethyl]-2-(5-methyl-2,4-dioxo-1,2,3,4-tetrahydro-1-pyrimidinyl)acetamide] | − | + | + | − | + | + |  |  |  |  |  |  |  |  |  | − | −
188 to 190 °C | CCCCc1nc2c(N)nc3cccnc3c2n1CCNC(=O)C1CCCCC1 [Example 94, N^1-[2-(4-Amino-2-butyl-1H-imidazo[4,5-c][1,5]naphthyridin-1-yl)ethyl]-1-cyclohexanecarboxamide] | + | + | + | + | + | + |  |  |  |  |  |  |  |  |  | − | −
159 to 159.2 °C | CCCCc1nc2c(N)nc3cccnc3c2n1CCOc1ccccc1 [Example 85, 2-Butyl-1-(2-phenoxyethyl)-1H-imidazo[4,5-c][1,5]naphthyridin-4-amine] | + | + | − | + | + | − |  |  |  |  |  |  |  |  |  | − | +
184 to 186 °C | CCCCc1nc2c(N)nc3cccnc3c2n1CCNC(=O)CCCCCC1NC(=O)NC1C (stereo not drawn) [Example 115, N^1-[4-(4-Amino-2-butyl-1H-imidazo[4,5-c][1,5]naphthyridin-1-yl)ethyl]-6-(5-methyl-2-oxo-4-imidazolidinyl)hexamide] | − | + | + | − | + | + |  |  |  |  |  |  |  |  |  | − | −
208 to 210 °C | CCCCc1nc2c(N)nc3cccnc3c2n1CCNC(=O)Cc1cccc(O)c1 [Example 98, N^1-[2-(4-Amino-2-butyl-1H-imidazo[4,5-c][1,5]naphthyridin-1-yl)ethyl]-2-(3-hydroxyphenyl)acetamide] | + | + | + | + | + | + |  |  |  |  |  |  |  |  |  | − | −
